Earlier results in patent US9669048B2, “Stable pharmaceutical composition of 5-aza-2′-deoxycitidine” (Fresenius Kabi Oncology Limited, priority 2012, dated 2017).

Details: reconstituted/diluted solution

Nc1ncn([C@H]2CC(O)[C@@H](CO)O2)c(=O)n1 (stereo partly shown) [Decitabine, 5-aza-2′-deoxycitidine]
Stability in aqueous media: highly unstable
